The nature of the data set: drug releasability test of liposomes in a shift reagent solution. Format: physicochemical. The procedure: After 1:10 dilution of the sample with a stop solution, the drug, not contained in the liposomes, was separated by ultracentrifugation to provide a sample solution. Separately, 100 μl of a VCR aqueous solution having a different concentration was taken out, to which 900 μl of water was added. Moreover, this solution was diluted with water at 1:10 to provide a reference solution for calibration curve. The sample solution and reference solution were subjected to quantitative determination under the HPLC conditions indicated before with respect to the VCR determination except that an injected amount was at 50 μl only in this determination method.
After dilution of the sample with a stop solution at 1:10, the drug, not contained in the liposomes, was separated by ultracentrifugation. 1 ml of a 0.1 mol/l dihydrogen sodium phosphate solution having a pH of 3.0 was added to and mixed with 1 ml of a supernatant of the sample obtained after the ultracentrifugation to provide a sample solution. Separately, 1 ml of a 0.1 mol/l dihydrogen sodium phosphate solution having a pH of 3.0 was added to and mixed with 1 ml of/a DXR solution having a different concentration to prepare a reference solution for calibration curve. The sample solution and reference solution were subjected to measurement under HPLC conditions indicated with respect to the DXR determination.
Release rate (%)=amount of released drug/total drug amount×100
Ammonium acetate was dissolved so as to make ammonium ion concentrations of 5, 20, 25, 50 and 100 mM and the pH of the solutions was adjusted to 7.0 by use of a 0.1 M sodium hydroxide test solution. Moreover, sodium chloride was added to the solutions so that an osmotic pressure thereof was made at 300 mOsm, thereby providing shift reagent solutions.
The liposomes shown in Preparatory Example 1 were diluted with the shift reagent solution at 1:10 and heated to 37° C. 2.5, 5, 10, 15 and 30 minutes after commencement of the heating, samples were taken out. It is to be noted that the samples were stored under ice cooling before use. The quantitative determination of released VCR was made according to the method described hereinbefore.
Ammonium acetate was dissolved so as to make an ammonium ion concentration of 50 mM, followed by controlling the pH of the solution at 4.0, 5.0, 6.0, 7.0 and 8.0 by use of a 1 M sodium hydroxide test solution. […]
The liposomes shown in Preparatory Example 1 were diluted with the shift reagent solution at 1:10 and heated at 37° C. […] The released VCR was quantitatively determined by the method set out hereinbefore. […]
The liposomes shown in Preparatory Example 1 were diluted with the shift reagent solution at 1:10 and heated at 37° C. […] The quantitative determination of the released VCR was made according to the method set out hereinbefore. […]

The values below come from US20110223675A1, “DRUG RELEASE MEANS FROM LIPOSOMES AND METHOD FOR EVALUATING RELEASABILITY” (TERUMO KABUSHIKI KAISHA, priority 2008, published 2011).

Structures can show the parent of a compound that is named as a salt.

For the molecule `COc1cccc2c1C(=O)c1c(O)c3c(c(O)c1C2=O)C[C@@](O)(C(=O)CO)C[C@@H]3O[C@H]1C[C@H](N)[C@H](O)[C@H](C)O1` [DXR, Doxorubicin hydrochloride], the DXR releasability result (250 mM ethylenediamine/phosphate buffer solution pH 7.4, 37° C., 0-4 hours) is “could be released”.
Consider `CC[C@]1(O)C[C@H]2CN(CCc3c([nH]c4ccccc34)[C@@](C(=O)OC)(c3cc4c(cc3OC)N(C=O)[C@H]3[C@@](O)(C(=O)OC)[C@H](OC(C)=O)[C@]5(CC)C=CCN6CC[C@]43[C@@H]65)C2)C1` [VCR, Vincristine sulfate], for which the “VCR releasability versus pH of shift reagent solution” value (LIP1, 50 mM ammonium acetate, pH 4.0-8.0, 300 mOsm, 37° C.) was “promoted with increasing pH”. The “VCR release versus osmotic pressure of shift reagent solution” value (LIP1, 50 mM ammonium acetate, pH 7.0, 100-750 mOsm, 37° C.) is on record as “a smaller osmotic pressure of the shift reagent solution leads to more promoted release”. Besides, where the note is “LIP2, 50 mM 2-aminoethanol, ethylenediamine or diethylamine, pH 7.4, 37° C.”, the “VCR release with amino compounds as shift reagent” value is recorded as “can be released”.
